From publication PMC5160925 (Frontiers in Microbiology, 2016)

What was measured:
Assay type in all cases: biochemical
[1] = biological target: T1, GadA6803 (glutamate decarboxylase) (Synechocystis sp. PCC 6803, UniProt P73043); assay: HPLC of PITC derivatives, GABA formation; settings: 1 mM glutamate, 50 mM K-phosphate, pH 4.5, room temperature, 1 h
T1 construct: gene gad; full ORF, N-terminal His10 tag kept, E. coli DH5alpha, Ni-NTA purified

[2] = biological target: T2, ArgD6803 (N-acetylornithine aminotransferase) (Synechocystis sp. PCC 6803, UniProt P73133); assay: HPLC of PITC derivatives, glutamate formation; settings: 1 mM 2-oxoglutarate, 50 mM K-phosphate, pH 9, room temperature, 1 h
T2 construct: gene argD; full ORF, N-terminal His10 tag kept, E. coli DH5alpha, Ni-NTA purified

[3] = biological target: T3, ArgD7002 (N-acetylornithine aminotransferase) (Picosynechococcus sp. PCC 7002, UniProt B1XNF8); assay: HPLC of PITC derivatives, glutamate formation; settings: 1 mM GABA, 1 mM 2-oxoglutarate, 50 mM K-phosphate, pH 9, room temperature, 1 h
T3 construct: gene argD; full ORF, N-terminal His10 tag kept, E. coli DH5alpha, Ni-NTA purified
T3 sequence (B1XNF8 1-418): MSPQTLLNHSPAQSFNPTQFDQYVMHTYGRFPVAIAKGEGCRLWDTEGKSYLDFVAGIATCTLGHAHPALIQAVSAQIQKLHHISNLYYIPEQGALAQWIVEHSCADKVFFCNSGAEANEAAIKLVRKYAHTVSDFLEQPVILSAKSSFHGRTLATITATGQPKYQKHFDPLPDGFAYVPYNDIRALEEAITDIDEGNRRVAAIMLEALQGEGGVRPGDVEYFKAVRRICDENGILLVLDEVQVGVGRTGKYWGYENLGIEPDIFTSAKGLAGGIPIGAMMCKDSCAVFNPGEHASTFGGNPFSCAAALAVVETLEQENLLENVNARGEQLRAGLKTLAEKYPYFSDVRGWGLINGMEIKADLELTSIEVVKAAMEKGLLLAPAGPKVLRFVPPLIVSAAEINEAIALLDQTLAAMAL

## N[C@@H](CCC(=O)O)C(=O)O [glutamate]
[1]
  HPLC of PITC derivatives, GABA formation: this protein catalyzes the conversion of glutamate to GABA

## NCCC[C@H](N)C(=O)O [L-ornithine]
[2]; 1 mM L-ornithine
  HPLC of PITC derivatives, glutamate formation: argD6803 or argD7002 was incubated with L-ornithine and 2-OG, glutamate was produced

## NCCCC(=O)O [GABA]
[2]; 1 mM GABA
  HPLC of PITC derivatives, glutamate formation: argD6803 or argD7002 was incubated with GABA and 2-oxoglutarate, glutamate was produced
[3]
  HPLC of PITC derivatives, glutamate formation: argD6803 or argD7002 was incubated with GABA and 2-oxoglutarate, glutamate was produced
